How the values were obtained:
Protease [1] = target: Protease (Human immunodeficiency virus 1, UniProt Q9YQ12, I84V); assay: Inhibition of HIV1 NL4-3 protease I84V mutant expressed in Escherichia coli TAP-106 cells using EDANS/DABCYL-labelled 10-amino acid containing protease cleavage site as substrate preincubated for 1 hr followed by substrate addition and measured for 60 mins by FRET assay
Protease [2] = target: Protease (Human immunodeficiency virus 1, UniProt Q9YQ12, A71V/I50V); assay: Inhibition of HIV1 NL4-3 protease I50V/A71V mutant expressed in Escherichia coli TAP-106 cells using EDANS/DABCYL-labelled 10-amino acid containing protease cleavage site as substrate preincubated for 1 hr followed by substrate addition and measured for 60 mins by FRET assay
Protease (Human immunodeficiency virus 1, UniProt Q9YQ12, A71V/I50V), sequence (Q9YQ12 entry or part of it A71V/I50V): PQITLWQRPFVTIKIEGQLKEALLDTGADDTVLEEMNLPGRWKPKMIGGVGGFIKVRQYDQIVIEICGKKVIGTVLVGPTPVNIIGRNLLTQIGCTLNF

[3] = target: Human immunodeficiency virus type 1 protease (Human immunodeficiency virus 1, UniProt Q72874); assay: Inhibition of HIV1 NL4-3 protease expressed in Escherichia coli TAP-106 cells using EDANS/DABCYL-labelled 10-amino acid containing protease cleavage site as substrate preincubated for 1 hr followed by substrate addition and measured for 60 mins by FRET assay
[4] = system: Human immunodeficiency virus 1; assay: Antiviral activity against wild-type HIV1 NL4-3 infected in human TZM-bl cells infected with supernatants from virus-infected human 293T cells treated with compound for 18 hrs assessed as reduction in viral replication by luciferase assay; assay type: functional, organism-based; conditions: Human immunodeficiency virus 1, NL4-3, 18 h

Protease (Human immunodeficiency virus 1, UniProt Q9YQ12, I84V), sequence (Q9YQ12 entry or part of it I84V): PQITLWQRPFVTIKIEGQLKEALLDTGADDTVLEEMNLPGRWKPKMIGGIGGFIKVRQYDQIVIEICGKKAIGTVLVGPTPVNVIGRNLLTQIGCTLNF

SMILES	Ki (Protease [1]) [nM]	Ki (Protease [2]) [nM]	Ki [3] [nM]	EC50 [4] [nM]
COC(=O)N[C@H](C(=O)N[C@@H](Cc1ccccc1)[C@@H](O)C[C@H](Cc1ccccc1)NC(=O)O[C@H]1CO[C@H]2OCC[C@H]21)C1CCCC1	0.71	2.35	0.235	–
COC(=O)NC1(C(=O)N[C@@H](Cc2ccccc2)[C@@H](O)C[C@H](Cc2ccccc2)NC(=O)O[C@H]2CO[C@H]3OCC[C@H]32)CCCC1	236	484	46	–
COC(=O)NC1(C(=O)N[C@@H](Cc2ccccc2)C[C@H](O)[C@H](Cc2ccccc2)NC(=O)O[C@H]2CO[C@H]3OCC[C@H]32)CCCC1	191	40	7.3	–
COC(=O)N[C@H](C(=O)N[C@@H](Cc1ccccc1)C[C@H](O)[C@H](Cc1ccccc1)NC(=O)O[C@H]1CO[C@H]2OCC[C@H]21)C(C)(C)C	0.372	0.072	0.013	39
COC(=O)N[C@H](C(=O)N[C@@H](Cc1ccccc1)C[C@H](O)[C@H](Cc1ccccc1)NC(=O)O[C@H]1CO[C@H]2OCC[C@H]21)C1CCCC1	1.18	1.39	0.161	–
Cc1cccc(C)c1OCC(=O)N[C@@H](Cc1ccccc1)C[C@H](O)[C@H](Cc1ccccc1)NC(=O)O[C@H]1CO[C@H]2OCC[C@H]21	0.259	–	0.037	16
Cc1cccc(C)c1OCC(=O)N[C@@H](Cc1ccccc1)[C@@H](O)C[C@H](Cc1ccccc1)NC(=O)[C@H](C(C)C)N1CCCNC1=O [LOPINAVIR]	–	–	–	12
Cc1cccc(C)c1OCC(=O)N[C@@H](Cc1ccccc1)[C@@H](O)C[C@H](Cc1ccccc1)NC(=O)O[C@H]1CO[C@H]2OCC[C@H]21	0.069	0.072	0.017	38
CC[C@@H](C)[C@H](NC(=O)OC)C(=O)N[C@@H](Cc1ccccc1)[C@@H](O)C[C@H](Cc1ccccc1)NC(=O)O[C@H]1CO[C@H]2OCC[C@H]21	0.091	0.029	0.027	240
COC(=O)N[C@@H](C)C(=O)N[C@@H](Cc1ccccc1)[C@@H](O)C[C@H](Cc1ccccc1)NC(=O)O[C@H]1CO[C@H]2OCC[C@H]21	0.069	0.073	0.019	66
COC(=O)N[C@H](C(=O)N[C@@H](Cc1ccccc1)[C@@H](O)C[C@H](Cc1ccccc1)NC(=O)O[C@H]1CO[C@H]2OCC[C@H]21)C1CC1	1.82	1.66	0.571	–
CC[C@H](C)[C@H](NC(=O)OC)C(=O)N[C@@H](Cc1ccccc1)[C@@H](O)C[C@H](Cc1ccccc1)NC(=O)O[C@H]1CO[C@H]2OCC[C@H]21	0.198	0.56	0.055	70
COC(=O)N[C@H](C(=O)N[C@@H](Cc1ccccc1)[C@@H](O)C[C@H](Cc1ccccc1)NC(=O)O[C@H]1CO[C@H]2OCC[C@H]21)C(C)C	0.302	0.295	0.074	55
COC(=O)N[C@H](C(=O)N[C@@H](Cc1ccccc1)[C@@H](O)C[C@H](Cc1ccccc1)NC(=O)O[C@H]1CO[C@H]2OCC[C@H]21)C(C)(C)C	0.208	0.273	0.018	11
